Molecular target: T1, PBP3 from Escherichia coli (K-12) (Escherichia coli, UniProt P0AD68)
T1 construct: made in house
Test: Bocillin-FL fluorescence polarization competition binding, E. coli PBP3
From the text: To determine the ability of boronic acid-based test PBP inhibitors to bind Penicillin Binding Proteins (PBPs), Bocillin-FL (fluorescently-labeled penicillin V; ThermoFisher Scientific) was used in a fluorescence polarization (FP) competition binding assay to assess inhibitor binding to PBP3 from Escherichia coli (K-12), PBP3 from Pseudomonas aeruginosa (PAO1), PBP1a and PBP3 from Acinetobacter baumannii (ATCC 19606), and PBP2 from Neisseria gonorrhoeae (FA19). PBPs were cloned and purified as described previously (E. coli PBP3, King, D. T, et al., ACS Infectious Diseases 2015, 1, 175-184; P. aeruginosa PBP3, Han et. al., PNAS 2010, 107 (51), 22002-22007; A. baumannii PBPs, Penwell et. al., Antimicrob. Agents Chemother. 2015, 59 (3), 1680-1689; N. gonorrhoeae PBP2, Singh et. al., J. Biol. Chem. 2019, 294 (38), 14020-14032). To establish assay conditions for competition binding, enzyme titration/saturation binding experiments were initially performed. Bocillin-FL was prepared at 0.2 μM in a buffer comprised of 50 mM Hepes (pH 8.0), 300 mM NaCl and 10% (v/v) glycerol for reactions with E. coli, P. aeruginosa and N. gonorrhoeae PBPs, and 25 mM Tris (pH 8.0), 200 mM NaCl, 10% (v/v) glycerol and 0.005% (v/v) Tween 20 for reactions with A. baumannii PBPs. Saturation binding was performed by mixing 40 μl of PBP solutions ranging in concentrations from 0-24 μM with 40 μl of the 0.2 μM Bocillin-FL solution, in individual wells of a black 384-well microplate. FP was measured immediately upon mixing (Excitation, 490 nm; Emission, 520 nm; g-factor, 0.96), using a Cytation3 (BioTek) microplate reader and measured continuously for up to 120 minutes. The FP response stabilized after 15 minutes for P. aeruginosa and A. baumannii PBP3, 30 minutes for E. coli PBP3 and A. baumannii PBP1a, and less than 1 minute for N. gonorrhoeae PBP2. […] The competition binding assay (80 μl final volume) was validated using beta-lactams and PBPs at final concentrations of: 1.5 μM for E. coli PBP3; 0.75 μM for P. aeruginosa PBP3; 1 μM for A. baumannii PBP1a; 0.2 μM for A. baumannii PBP3; and 0.25 μM for N. gonorrhoeae PBP2. Bocillin-FL was at 0.1 μM (0.05 μM with A. baumannii PBP1a) and beta-lactam concentrations ranged from 0-1,000 μM. E. coli PBP3 was incubated with increasing concentrations of ampicillin in a black 384-well microplate (Corning) for 30 minutes. P. aeruginosa PBP3 was incubated for 15 minutes with aztreonam, whereas A. baumannii PBP1a and PBP3 were incubated for 15 minutes with meropenem, and then Bocillin-FL was added followed immediately by the FP measurement for up to 60 minutes. […] The beta-lactam potency was reported as the concentration of beta-lactam required to reduce the amount of PBP bound-Bocillin-FL by 50% (EC50). […] The EC50 of aztreonam was determined to be <0.5 μM for P. aeruginosa PBP3. […] Binding assays for boronic acid PBP inhibitors were performed in an identical fashion for the respective PBPs.

T1 sequence (P0AD68 1-577): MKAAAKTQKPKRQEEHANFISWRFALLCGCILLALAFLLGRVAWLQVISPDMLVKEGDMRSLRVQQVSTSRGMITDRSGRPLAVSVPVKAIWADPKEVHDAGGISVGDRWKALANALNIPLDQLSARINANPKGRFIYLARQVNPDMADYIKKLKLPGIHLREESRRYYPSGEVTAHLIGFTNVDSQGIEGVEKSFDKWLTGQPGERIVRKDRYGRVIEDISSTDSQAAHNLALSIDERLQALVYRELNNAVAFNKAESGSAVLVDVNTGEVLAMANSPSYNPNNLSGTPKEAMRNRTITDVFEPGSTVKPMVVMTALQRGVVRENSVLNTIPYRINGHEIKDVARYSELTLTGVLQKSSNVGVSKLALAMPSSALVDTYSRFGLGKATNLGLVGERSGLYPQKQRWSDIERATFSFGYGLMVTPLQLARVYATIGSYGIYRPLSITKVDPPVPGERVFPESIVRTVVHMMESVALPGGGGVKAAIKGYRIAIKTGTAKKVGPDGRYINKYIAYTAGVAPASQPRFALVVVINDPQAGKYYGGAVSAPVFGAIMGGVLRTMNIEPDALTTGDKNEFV

SMILES: Nc1ncc(C(=O)N[C@@H](C(=O)N[C@H]2Cc3cccc(C(=O)O)c3OB2O)c2ccc(P(=O)(O)O)cc2)s1 (racemic) [Example 50, (R)-3-((S)-2-(2-aminothiazole-5-carboxamido)-2-(4-phosphonophenyl)acetamido)-2-hydroxy-3,4-dihydro-2H-benzo[e][1,2]oxaborinine-8-carboxylic acid and (R)-3-((R)-2-(2-aminothiazole-5-carboxamido)-2-(4-phosphonophenyl)acetamido)-2-hydroxy-3,4-dihydro-2H-benzo[e][1,2]oxaborinine-8-carboxylic acid]
- EC50: 50 to 250 µM

SMILES: Nc1nc(C(=O)N[C@@H](C(=O)N[C@H]2Cc3cccc(C(=O)O)c3OB2O)c2ccc(P(=O)(O)O)cc2)cs1 (racemic) [Example 51, (R)-3-((S)-2-(2-aminothiazole-4-carboxamido)-2-(4-phosphonophenyl)acetamido)-2-hydroxy-3,4-dihydro-2H-benzo[e][1,2]oxaborinine-8-carboxylic acid and (R)-3-((R)-2-(2-aminothiazole-4-carboxamido)-2-(4-phosphonophenyl)acetamido)-2-hydroxy-3,4-dihydro-2H-benzo[e][1,2]oxaborinine-8-carboxylic acid]
- EC50: 10 to 50 µM

SMILES: CN1CCC[C@@H]1C(=O)N[C@@H](C(=O)N[C@H]1Cc2cccc(C(=O)O)c2OB1O)c1ccc(P(=O)(O)O)cc1 (racemic) [Example 54, (R)-2-hydroxy-3-((S)-2-((R)-1-methylpyrrolidine-2-carboxamido)-2-(4-phosphonophenyl)acetamido)-3,4-dihydro-2H-benzo[e][1,2]oxaborinine-8-carboxylic acid and (R)-2-hydroxy-3-((R)-2-((R)-1-methylpyrrolidine-2-carboxamido)-2-(4-phosphonophenyl)acetamido)-3,4-dihydro-2H-benzo[e][1,2]oxaborinine-8-carboxylic acid]
- EC50: 50 to 250 µM

SMILES: CCN1CCN(C(=O)N[C@@H](C(=O)N[C@H]2Cc3cccc(C(=O)O)c3OB2O)c2ccc(P(=O)(O)O)c(F)c2)C(=O)C1=O (single isomer, unassigned) [Example 7]
- EC50: < 10 µM

SMILES: CCN1CCN(C(=O)N[C@H](C(=O)N[C@H]2Cc3ccc(F)c(C(=O)O)c3OB2O)c2ccc(P(=O)(O)O)cc2)C(=O)C1=O (single isomer, unassigned) [Example 9]
- EC50: 50 to 250 µM

SMILES: CCN1CCN(C(=O)N[C@@H](C(=O)N[C@H]2Cc3cccc(C(=O)O)c3OB2O)c2ccc(P(C)(=O)O)cc2)C(=O)C1=O (single isomer, unassigned) [Example 47]
- EC50: < 10 µM

SMILES: O=C(O)c1cccc2c1OB(O)[C@@H](NC(=O)[C@@H](NC(=O)c1ccn[nH]c1=O)c1ccc(P(=O)(O)O)cc1)C2 (single isomer, unassigned) [Example 177]
- EC50: 10 to 50 µM

SMILES: O=C(O)c1cccc2c1OB(O)[C@@H](NC(=O)[C@H](NC(=O)c1ccn[nH]c1=O)c1ccc(P(=O)(O)O)cc1)C2 (single isomer, unassigned) [Example 178]
- EC50: < 10 µM

SMILES: Cn1cccc(C(=O)N[C@H](C(=O)N[C@H]2Cc3cccc(C(=O)O)c3OB2O)c2ccc(P(=O)(O)O)cc2)c1=O (single isomer, unassigned) [Example 181]
- EC50: 50 to 250 µM

SMILES: Cn1cccc(C(=O)N[C@@H](C(=O)N[C@H]2Cc3cccc(C(=O)O)c3OB2O)c2ccc(P(=O)(O)O)cc2)c1=O (single isomer, unassigned) [Example 182]
- EC50: < 10 µM

SMILES: O=C(O)c1cccc2c1OB(O)[C@@H](NC(=O)[C@@H](NC(=O)c1cccn(C(F)F)c1=O)c1ccc(P(=O)(O)O)cc1)C2 (single isomer, unassigned) [Example 190]
- EC50: 10 to 50 µM

SMILES: O=C(O)c1cccc2c1OB(O)[C@@H](NC(=O)[C@H](NC(=O)c1cccn(C(F)F)c1=O)c1ccc(P(=O)(O)O)cc1)C2 (single isomer, unassigned) [Example 191]
- EC50: < 10 µM

SMILES: O=C(N[C@H](C(=O)N[C@H]1Cc2cccc(C(=O)O)c2OB1O)c1ccc(P(=O)(O)O)cc1)c1ccc(C(F)(F)F)cn1 (single isomer, unassigned) [Example 192]
- EC50: 10 to 50 µM

SMILES: O=C(N[C@@H](C(=O)N[C@H]1Cc2cccc(C(=O)O)c2OB1O)c1ccc(P(=O)(O)O)cc1)c1ccc(C(F)(F)F)cn1 (single isomer, unassigned) [Example 193]
- EC50: < 10 µM

SMILES: O=C(O)c1cccc2c1OB(O)[C@@H](NC(=O)[C@@H](NC(=O)c1cnc3sccn3c1=O)c1ccc(P(=O)(O)O)cc1)C2 (single isomer, unassigned) [Example 194]
- EC50: 10 to 50 µM

SMILES: O=C(O)c1cccc2c1OB(O)[C@@H](NC(=O)[C@H](NC(=O)c1cnc3sccn3c1=O)c1ccc(P(=O)(O)O)cc1)C2 (single isomer, unassigned) [Example 195]
- EC50: < 10 µM

SMILES: CS(=O)(=O)N1CCN(C(=O)NC(C(=O)N[C@H]2Cc3cccc(C(=O)O)c3OB2O)c2ccc(P(=O)(O)O)c(F)c2)C1=O (stereo partly drawn) [Example 12, (3R)-3-(2-(3-fluoro-4-phosphonophenyl)-2-(3-(methylsulfonyl)-2-oxoimidazolidine-1-carboxamido)acetamido)-2-hydroxy-3,4-dihydro-2H-benzo[e][1,2]oxaborinine-8-carboxylic acid]
- EC50: < 10 µM

SMILES: CCN1CCN(C(=O)NC(C(=O)N[C@H]2Cc3cccc(C(=O)O)c3OB2O)c2cccc(CP(=O)(O)O)c2)C(=O)C1=O (stereo partly drawn) [Example 22, (3R)-3-(2-(4-ethyl-2,3-dioxopiperazine-1-carboxamido)-2-(3-(phosphonomethyl)phenyl)acetamido)-2-hydroxy-3,4-dihydro-2H-benzo[e][1,2]oxaborinine-8-carboxylic acid]
- EC50: < 10 µM

SMILES: CCN1CCN(C(=O)NC(C(=O)N[C@H]2Cc3cccc(C(=O)O)c3OB2O)c2c(F)cc(P(=O)(O)O)cc2F)C(=O)C1=O (stereo partly drawn) [Example 25, (3R)-3-(2-(2,6-difluoro-4-phosphonophenyl)-2-(4-ethyl-2,3-dioxopiperazine-1-carboxamido)acetamido)-2-hydroxy-3,4-dihydro-2H-benzo[e][1,2]oxaborinine-8-carboxylic acid]
- EC50: < 10 µM

SMILES: CCC(=O)NC(C(=O)N[C@H]1Cc2cccc(C(=O)O)c2OB1O)c1ccc(P(=O)(O)O)cc1 (stereo partly drawn) [Example 27, (3R)-2-hydroxy-3-(2-(4-phosphonophenyl)-2-propionamidoacetamido)-3,4-dihydro-2H-benzo[e][1,2]oxaborinine-8-carboxylic acid]
- EC50: 50 to 250 µM

SMILES: CC(C)C(=O)NC(C(=O)N[C@H]1Cc2cccc(C(=O)O)c2OB1O)c1ccc(P(=O)(O)O)cc1 (stereo partly drawn) [Example 28, (3R)-2-hydroxy-3-(2-isobutyramido-2-(4-phosphonophenyl)acetamido)-3,4-dihydro-2H-benzo[e][1,2]oxaborinine-8-carboxylic acid]
- EC50: 50 to 250 µM

SMILES: CC(C)(C)C(=O)NC(C(=O)N[C@H]1Cc2cccc(C(=O)O)c2OB1O)c1ccc(P(=O)(O)O)cc1 (stereo partly drawn) [Example 29, (3R)-2-hydroxy-3-(2-(4-phosphonophenyl)-2-pivalamidoacetamido)-3,4-dihydro-2H-benzo[e][1,2]oxaborinine-8-carboxylic acid]
- EC50: 50 to 250 µM

SMILES: O=C(O)c1cccc2c1OB(O)[C@@H](NC(=O)C(NC(=O)C1CC1)c1ccc(P(=O)(O)O)cc1)C2 (stereo partly drawn) [Example 30, (3R)-3-(2-(cyclopropanecarboxamido)-2-(4-phosphonophenyl)acetamido)-2-hydroxy-3,4-dihydro-2H-benzo[e][1,2]oxaborinine-8-carboxylic acid]
- EC50: 50 to 250 µM

SMILES: O=C(O)c1cccc2c1OB(O)[C@@H](NC(=O)C(NC(=O)C1CCCCC1)c1ccc(P(=O)(O)O)cc1)C2 (stereo partly drawn) [Example 31, (3R)-3-(2-(cyclohexanecarboxamido)-2-(4-phosphonophenyl)acetamido)-2-hydroxy-3,4-dihydro-2H-benzo[e][1,2]oxaborinine-8-carboxylic acid]
- EC50: 50 to 250 µM

SMILES: O=C(NC(C(=O)N[C@H]1Cc2cccc(C(=O)O)c2OB1O)c1ccc(P(=O)(O)O)cc1)c1ccccn1 (stereo partly drawn) [Example 32, (3R)-2-hydroxy-3-(2-(4-phosphonophenyl)-2-(picolinamido)acetamido)-3,4-dihydro-2H-benzo[e][1,2]oxaborinine-8-carboxylic acid]
- EC50: 10 to 50 µM

Source: patent publication US20240270762A1, “PENICILLIN-BINDING PROTEIN INHIBITORS” (priority 2021, published 2024)
